Laboratory results as given in article PMC5725665, “Discovery of a Highly Selective Cell‐Active Inhibitor of the Histone Lysine Demethylases KDM2/7” (Angewandte Chemie (International Ed. in English), 2017).

Columns and labels:
Assay in all cases: biochemical
Set-up in all cases: AlphaScreen histone demethylase activity assay
JMJD2C (KDM4C) = target: T1, JMJD2C (KDM4C) (Homo sapiens, UniProt Q9H3R0)
T1 sequence (Q9H3R0 1-1056): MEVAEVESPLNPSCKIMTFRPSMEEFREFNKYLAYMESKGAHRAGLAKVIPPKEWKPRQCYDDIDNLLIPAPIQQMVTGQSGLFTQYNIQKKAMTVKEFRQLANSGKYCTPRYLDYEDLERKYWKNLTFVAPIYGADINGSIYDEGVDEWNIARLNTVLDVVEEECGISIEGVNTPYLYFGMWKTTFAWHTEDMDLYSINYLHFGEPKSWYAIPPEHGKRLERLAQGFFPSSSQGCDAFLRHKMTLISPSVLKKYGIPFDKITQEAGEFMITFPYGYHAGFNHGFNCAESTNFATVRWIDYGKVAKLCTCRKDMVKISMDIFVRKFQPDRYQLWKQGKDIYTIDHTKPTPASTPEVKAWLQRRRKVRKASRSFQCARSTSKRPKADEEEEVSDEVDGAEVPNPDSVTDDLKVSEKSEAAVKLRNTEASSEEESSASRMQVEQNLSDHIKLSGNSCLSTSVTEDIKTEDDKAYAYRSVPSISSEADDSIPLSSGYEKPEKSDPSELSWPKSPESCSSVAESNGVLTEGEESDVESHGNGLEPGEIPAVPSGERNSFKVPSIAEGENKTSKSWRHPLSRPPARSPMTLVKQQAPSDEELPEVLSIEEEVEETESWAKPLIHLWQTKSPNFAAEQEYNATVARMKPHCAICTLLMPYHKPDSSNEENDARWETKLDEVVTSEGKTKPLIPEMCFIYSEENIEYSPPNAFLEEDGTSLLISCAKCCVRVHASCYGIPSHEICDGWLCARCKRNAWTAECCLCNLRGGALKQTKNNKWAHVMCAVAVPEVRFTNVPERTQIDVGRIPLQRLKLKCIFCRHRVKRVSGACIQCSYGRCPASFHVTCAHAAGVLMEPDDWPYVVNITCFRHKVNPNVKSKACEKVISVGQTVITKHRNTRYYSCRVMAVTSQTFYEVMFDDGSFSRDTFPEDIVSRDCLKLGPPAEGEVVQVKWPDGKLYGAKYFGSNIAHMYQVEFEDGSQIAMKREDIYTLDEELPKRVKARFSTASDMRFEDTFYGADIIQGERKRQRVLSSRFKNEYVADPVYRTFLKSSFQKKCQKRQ

JMJD1A (KDM3A) = target: T2, JMJD1A (KDM3A) (Homo sapiens, UniProt Q9Y4C1)
T2 sequence (Q9Y4C1 1-1321): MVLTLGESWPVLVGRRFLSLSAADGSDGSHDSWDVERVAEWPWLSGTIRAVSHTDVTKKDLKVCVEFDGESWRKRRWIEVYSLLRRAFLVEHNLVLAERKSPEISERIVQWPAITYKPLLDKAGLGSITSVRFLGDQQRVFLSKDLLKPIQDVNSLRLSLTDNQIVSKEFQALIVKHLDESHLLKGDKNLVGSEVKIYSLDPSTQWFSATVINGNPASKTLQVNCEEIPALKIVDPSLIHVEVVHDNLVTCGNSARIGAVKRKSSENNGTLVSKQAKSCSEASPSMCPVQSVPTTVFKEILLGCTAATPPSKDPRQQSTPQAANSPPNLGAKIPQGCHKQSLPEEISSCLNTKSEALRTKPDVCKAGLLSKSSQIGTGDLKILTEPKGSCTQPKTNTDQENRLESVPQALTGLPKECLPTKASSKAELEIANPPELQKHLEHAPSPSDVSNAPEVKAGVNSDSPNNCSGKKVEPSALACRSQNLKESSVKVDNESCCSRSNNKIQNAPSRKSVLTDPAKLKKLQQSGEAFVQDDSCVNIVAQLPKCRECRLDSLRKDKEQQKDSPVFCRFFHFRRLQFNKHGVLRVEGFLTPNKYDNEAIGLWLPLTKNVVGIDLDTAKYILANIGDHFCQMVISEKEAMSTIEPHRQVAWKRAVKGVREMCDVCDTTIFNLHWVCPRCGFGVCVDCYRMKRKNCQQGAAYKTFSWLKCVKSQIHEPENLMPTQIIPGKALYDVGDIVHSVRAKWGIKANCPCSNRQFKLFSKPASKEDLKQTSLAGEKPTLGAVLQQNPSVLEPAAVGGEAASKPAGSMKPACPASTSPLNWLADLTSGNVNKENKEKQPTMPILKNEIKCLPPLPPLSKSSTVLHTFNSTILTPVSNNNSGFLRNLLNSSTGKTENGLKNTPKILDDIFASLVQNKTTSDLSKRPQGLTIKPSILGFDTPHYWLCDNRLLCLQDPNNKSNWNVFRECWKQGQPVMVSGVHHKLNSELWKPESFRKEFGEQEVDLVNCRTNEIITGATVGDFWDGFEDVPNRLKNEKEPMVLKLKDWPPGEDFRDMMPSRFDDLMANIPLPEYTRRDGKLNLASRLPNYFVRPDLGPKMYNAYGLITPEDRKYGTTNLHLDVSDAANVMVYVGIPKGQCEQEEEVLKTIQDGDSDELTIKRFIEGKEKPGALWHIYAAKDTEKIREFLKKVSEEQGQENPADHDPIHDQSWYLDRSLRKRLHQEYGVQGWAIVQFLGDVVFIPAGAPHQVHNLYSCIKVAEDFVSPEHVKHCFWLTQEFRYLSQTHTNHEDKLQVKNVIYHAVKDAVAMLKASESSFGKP

JMJD3A (KDM6B) = JMJD3A (KDM6B) (Homo sapiens, UniProt O15054); details: read-out: KDM6B pIC50 (converted)
PHF8 (KDM7B) = PHF8 (KDM7B) (Homo sapiens, UniProt Q9UPP1); details: read-out: KDM7B pIC50 (converted)
PHF8 (KDM7B), sequence (Q9UPP1 whole entry): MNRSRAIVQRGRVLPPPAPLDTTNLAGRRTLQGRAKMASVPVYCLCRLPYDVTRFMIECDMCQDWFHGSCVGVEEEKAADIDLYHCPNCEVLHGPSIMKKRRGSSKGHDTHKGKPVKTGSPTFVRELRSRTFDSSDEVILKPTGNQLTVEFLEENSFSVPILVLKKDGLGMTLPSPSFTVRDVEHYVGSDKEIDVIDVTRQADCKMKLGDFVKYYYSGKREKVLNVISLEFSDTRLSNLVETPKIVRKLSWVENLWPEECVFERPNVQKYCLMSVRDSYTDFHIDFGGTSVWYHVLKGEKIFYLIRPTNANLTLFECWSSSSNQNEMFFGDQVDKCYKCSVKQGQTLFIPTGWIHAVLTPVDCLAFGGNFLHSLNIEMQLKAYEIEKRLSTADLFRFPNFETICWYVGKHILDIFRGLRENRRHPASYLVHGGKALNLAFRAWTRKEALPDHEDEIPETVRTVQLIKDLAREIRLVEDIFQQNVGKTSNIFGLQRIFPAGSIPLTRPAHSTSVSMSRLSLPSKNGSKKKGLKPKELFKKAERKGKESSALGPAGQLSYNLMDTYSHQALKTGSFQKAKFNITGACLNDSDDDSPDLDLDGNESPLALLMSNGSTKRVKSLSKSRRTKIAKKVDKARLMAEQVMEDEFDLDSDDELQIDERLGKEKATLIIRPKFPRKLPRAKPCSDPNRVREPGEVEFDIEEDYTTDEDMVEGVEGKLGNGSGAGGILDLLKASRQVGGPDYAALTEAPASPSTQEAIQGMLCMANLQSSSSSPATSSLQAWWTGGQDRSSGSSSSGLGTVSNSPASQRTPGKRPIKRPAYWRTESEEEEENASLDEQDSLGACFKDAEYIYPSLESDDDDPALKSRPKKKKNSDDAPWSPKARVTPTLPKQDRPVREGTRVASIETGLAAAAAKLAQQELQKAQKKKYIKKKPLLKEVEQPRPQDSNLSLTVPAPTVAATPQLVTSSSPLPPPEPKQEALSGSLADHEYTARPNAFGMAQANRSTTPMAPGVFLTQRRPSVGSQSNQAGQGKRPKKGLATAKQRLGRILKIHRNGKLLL

JMJD3A (KDM6B), sequence (O15054 whole entry): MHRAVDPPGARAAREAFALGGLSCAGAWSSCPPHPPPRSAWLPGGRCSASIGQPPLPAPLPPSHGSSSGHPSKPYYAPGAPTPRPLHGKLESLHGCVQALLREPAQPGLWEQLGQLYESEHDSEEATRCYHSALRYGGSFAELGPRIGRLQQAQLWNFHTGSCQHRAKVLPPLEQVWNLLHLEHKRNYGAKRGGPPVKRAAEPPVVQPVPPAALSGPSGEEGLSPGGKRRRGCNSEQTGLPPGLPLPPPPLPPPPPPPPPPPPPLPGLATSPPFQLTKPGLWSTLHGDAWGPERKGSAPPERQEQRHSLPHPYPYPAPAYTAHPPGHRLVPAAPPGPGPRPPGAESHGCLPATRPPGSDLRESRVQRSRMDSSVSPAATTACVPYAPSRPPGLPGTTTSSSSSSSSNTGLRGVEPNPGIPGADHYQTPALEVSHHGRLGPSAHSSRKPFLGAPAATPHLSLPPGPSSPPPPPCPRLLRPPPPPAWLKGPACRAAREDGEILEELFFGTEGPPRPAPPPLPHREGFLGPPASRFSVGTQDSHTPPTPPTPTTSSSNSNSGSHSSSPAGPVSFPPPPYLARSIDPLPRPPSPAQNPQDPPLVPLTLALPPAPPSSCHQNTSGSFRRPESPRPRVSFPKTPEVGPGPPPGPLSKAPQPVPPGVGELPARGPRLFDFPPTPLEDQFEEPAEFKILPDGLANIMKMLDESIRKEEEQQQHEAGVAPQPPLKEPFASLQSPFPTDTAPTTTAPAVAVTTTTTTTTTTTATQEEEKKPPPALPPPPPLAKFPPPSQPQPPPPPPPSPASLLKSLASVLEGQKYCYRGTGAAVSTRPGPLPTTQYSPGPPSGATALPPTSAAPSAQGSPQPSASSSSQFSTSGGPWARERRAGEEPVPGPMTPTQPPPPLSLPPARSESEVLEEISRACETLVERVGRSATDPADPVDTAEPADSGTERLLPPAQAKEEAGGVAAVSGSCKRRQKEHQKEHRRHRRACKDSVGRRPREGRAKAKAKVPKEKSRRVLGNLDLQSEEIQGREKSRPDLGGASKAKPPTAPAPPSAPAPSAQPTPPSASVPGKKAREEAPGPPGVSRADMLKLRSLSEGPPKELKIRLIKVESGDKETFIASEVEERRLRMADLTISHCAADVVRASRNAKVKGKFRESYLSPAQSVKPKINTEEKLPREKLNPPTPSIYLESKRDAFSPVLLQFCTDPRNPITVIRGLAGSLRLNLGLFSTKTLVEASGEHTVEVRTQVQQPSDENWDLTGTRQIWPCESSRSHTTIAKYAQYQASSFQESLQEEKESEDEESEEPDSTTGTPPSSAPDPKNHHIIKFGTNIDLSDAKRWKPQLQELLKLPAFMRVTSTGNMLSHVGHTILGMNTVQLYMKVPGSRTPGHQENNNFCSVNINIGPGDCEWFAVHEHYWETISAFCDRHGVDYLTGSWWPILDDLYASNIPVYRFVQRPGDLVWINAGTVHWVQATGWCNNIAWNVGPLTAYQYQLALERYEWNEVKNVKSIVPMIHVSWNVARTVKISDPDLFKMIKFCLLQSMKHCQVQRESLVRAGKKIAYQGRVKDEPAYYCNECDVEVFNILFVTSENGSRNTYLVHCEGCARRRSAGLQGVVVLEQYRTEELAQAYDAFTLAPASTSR

In the case of `CC(=O)N1c2ccccc2[C@@](C#N)(c2ccccc2)[C@@H]1c1cncc(CCCCCCCN2CCCC2)c1` [(S,S)-6], the inhibition at 10 µM (JMJD2C (KDM4C); read-out: KDM4C % Inhib. (10 uM)) is reported as 30.5%, the IC50 (JMJD2C (KDM4C); read-out: KDM4C pIC50 (converted)) is reported as > 100 µM and the inhibition at 100 µM (JMJD1A (KDM3A)) is reported as 35.4%. The IC50 (JMJD1A (KDM3A); read-out: KDM3A pIC50 (converted)) was > 100 µM, the IC50 (JMJD3A (KDM6B)) was 19.8 µM and the IC50 (PHF8 (KDM7B)) was 22.8 µM.
